# Where “and” joins values, the source holds several entries; their conditions need not be identical. Identical values can stand only once. Like-named read-outs stand apart in the source and are kept apart here.
# Experiments:
# [1] = test system: HIV-1 Env-pseudoviruses (30-strain panel); assay: Neutralization assay, cross-clade 30-strain panel (Env-pseudoviruses, TZM-bl target cells); assay type: cell-based
# Experimental: Neutralization was measured using single-round-of-infection HIV-1 Env-pseudoviruses and TZM-bl target cells (ARP Cat No. #8129)[44],[45]. Compounds were prepared at 400 μM with 4% DMSO (dimethyl sulfoxide) in PBS (phosphate-buffered saline) and diluted 20 times as the starting concentration for serial dilution in the neutralization assays. […] After incubation at 37 °C for 2 days, infection of target cells was measured by luciferase activity. Neutralization curves were fit by nonlinear regression using a five-parameter hill slope equation[45].
# [2] = target: BG505 DS-SOSIP.664 Env trimer (Human immunodeficiency virus 1, UniProt Q2N0S5, A430C/A498C/I200C/I556P/T330N/T602C, form not given); assay type: binding, HIV-1; details: ITC, 37 °C
# [3] = test system: HIV-1 strain NL4-3; details: cited from earlier work
# [4] = test system: SVA.MLV; assay: Neutralization assay, control virus SVA.MLV; assay type: cell-based; details: clade NA
# Experimental: Neutralization was measured using single-round-of-infection HIV-1 Env-pseudoviruses and TZM-bl target cells (ARP Cat No. #8129)[44],[45]. Compounds were prepared at 400 μM with 4% DMSO (dimethyl sulfoxide) in PBS (phosphate-buffered saline) and diluted 20 times as the starting concentration for serial dilution in the neutralization assays. Pseudoviruses of ten strains from HIV-1 clades A, B, and C were incubated with serial dilutions of drug compounds, then added to TZM-bl target cells which have a luciferase reporter gene. After incubation at 37 °C for 2 days, infection of target cells was measured by luciferase activity. Neutralization curves were fit by nonlinear regression using a five-parameter hill slope equation[45].
# [5] = Human immunodeficiency virus 1, TZM-bl, 242-14 (Clade AG), read-out: IC50
# [6] = Human immunodeficiency virus 1, TZM-bl, 247-23 (Clade D), read-out: IC50
# [7] = Human immunodeficiency virus 1, TZM-bl, 0330.v4.c3 (Clade A), read-out: IC50
# [8] = Human immunodeficiency virus 1, TZM-bl, 426c (Clade C), read-out: IC50
# [9] = Human immunodeficiency virus 1, TZM-bl, 7165.18 (Clade B), read-out: IC50
# [10] = Human immunodeficiency virus 1, TZM-bl, B41 (Clade B), read-out: IC50
# [11] = Human immunodeficiency virus 1, TZM-bl, BJOX028000.10.3 (Clade AE), read-out: IC50
# [12] = Human immunodeficiency virus 1, TZM-bl, BL01.DG (Clade B), read-out: IC50
# [13] = Human immunodeficiency virus 1, TZM-bl, C4118.09 (Clade AE), read-out: IC50
# [14] = Human immunodeficiency virus 1, TZM-bl, CAP210.E8 (Clade C), read-out: IC50
# [15] = Human immunodeficiency virus 1, TZM-bl, CH119.10 (Clade BC), read-out: IC50
# [16] = Human immunodeficiency virus 1, TZM-bl, CNE10 (Clade B), read-out: IC50
# [17] = Human immunodeficiency virus 1, TZM-bl, CNE20 (Clade BC), read-out: IC50
# [18] = Human immunodeficiency virus 1, TZM-bl, CNE56 (Clade AE), read-out: IC50
# [19] = Human immunodeficiency virus 1, TZM-bl, DJ263.8 (Clade AG), read-out: IC50
# [20] = Human immunodeficiency virus 1, TZM-bl, DU156.12 (Clade C), read-out: IC50
# [21] = Human immunodeficiency virus 1, TZM-bl, Geomean, 30-strain panel, read-out: Geometric mean IC50
# [22] = Human immunodeficiency virus 1, TZM-bl, KER2008.12 (Clade A), read-out: IC50
# [23] = Human immunodeficiency virus 1, TZM-bl, MB201.A1 (Clade A), read-out: IC50
# [24] = Human immunodeficiency virus 1, TZM-bl, NKU3006.ec1 (Clade D), read-out: IC50
# [25] = Human immunodeficiency virus 1, TZM-bl, P0402.c2.11 (Clade G), read-out: IC50
# [26] = Human immunodeficiency virus 1, TZM-bl, PVO.04 (Clade B), read-out: IC50
# [27] = Human immunodeficiency virus 1, TZM-bl, R3265.c6 (Clade AE), read-out: IC50
# [28] = Human immunodeficiency virus 1, TZM-bl, REJO.67 (Clade B), read-out: IC50
# [29] = Human immunodeficiency virus 1, TZM-bl, T253-11 (Clade AG), read-out: IC50
# [30] = Human immunodeficiency virus 1, TZM-bl, T280-5 (Clade AG), read-out: IC50
# [31] = Human immunodeficiency virus 1, TZM-bl, ZM106.9 (Clade C), read-out: IC50
compound,measurement,setting,value
COc1cnc(-n2cnc(C)n2)c2[nH]cc(C(=O)C(=O)N3CCN(C(=O)c4ccccc4)CC3)c12 [BMS-626529],IC50,"[1]; Geomean, 30-strain panel, read-out: Geometric mean IC50",~40 nM
same,IC50,[1]; [5],24 nM
same,IC50,[1]; [6],9 nM
same,IC50,[1]; [7],185 nM
same,IC50,[1]; [8],5 nM
same,IC50,[1]; [9],20 nM
same,IC50,[1]; [10],0.7 nM
same,IC50,[1]; [11],> 20000 nM
same,IC50,[1]; [12],12400 nM
same,IC50,[1]; [13],6210 nM
same,IC50,[1]; [14],66 nM
same,IC50,[1]; [15],5 nM
same,IC50,[1]; [16],2 nM
same,IC50,[1]; [17],878 nM
same,IC50,[1]; [18],> 20000 nM
same,IC50,[1]; [19],12 nM
same,IC50,[1]; [20],2 nM
same,IC50,[1]; [21],> 40 nM
same,IC50,[1]; [22],758 nM
same,IC50,[1]; [23],474 nM
same,IC50,[1]; [24],2 nM
same,IC50,[1]; [25],17 nM
same,IC50,[1]; [26],0.9 nM
same,IC50,[1]; [27],5840 nM
same,IC50,[1]; [28],205 nM
same,IC50,[1]; [29],0.5 nM
same,IC50,[1]; [30],3 nM
same,IC50,[1]; [31],16 nM
same,IC50,"[1]; Human immunodeficiency virus 1, TZM-bl, read-out: IC50",5 nM
same,-TΔS,[2],+7.7 kcal/mol
same,ΔG,[2],-9.1 kcal/mol
same,ΔH,[2],-16.8 kcal/mol
same,EC50,[3],2.2 ± 0.6 nM
COc1cnc(-c2csc(C(=O)NCCO)n2)c2[nH]cc(C(=O)C(=O)N3CCC(=C(C#N)c4ccccc4)CC3)c12 [BMS-818251],IC50,"[1]; Human immunodeficiency virus 1, TZM-bl",< 0.3 nM and < 0.0002 µg/mL
same,IC50,[1]; [5],< 0.3 nM
same,IC50,"[1]; Human immunodeficiency virus 1, TZM-bl, 242-14.SG3 (Clade AG), read-out: IC50",< 0.2 ng/mL
same,IC50,[1]; [6],< 0.3 nM
same,IC50,"[1]; Human immunodeficiency virus 1, TZM-bl, 247-23.SG3 (Clade D), read-out: IC50",< 0.2 ng/mL
same,IC50,[1]; [7],4 nM
same,IC50,"[1]; Human immunodeficiency virus 1, TZM-bl, 0330.v4.c3.SG3 (Clade A), read-out: IC50",2.3 ng/mL
same,IC50,[1]; [8],0.4 nM
same,IC50,"[1]; Human immunodeficiency virus 1, TZM-bl, 426c.SG3 (Clade C), read-out: IC50",< 0.2 ng/mL
same,IC50,[1]; [9],13 nM
same,IC50,"[1]; Human immunodeficiency virus 1, TZM-bl, 7165.18.SG3 (Clade B), read-out: IC50",7.4 ng/mL
same,IC50,"[1]; Human immunodeficiency virus 1, TZM-bl, A03349M1.vrc4a.SG3 (Clade D), read-out: IC50",< 0.2 ng/mL
same,IC50,[1]; [10],< 0.3 nM
same,IC50,"[1]; Human immunodeficiency virus 1, TZM-bl, B41.SG3 (Clade B), read-out: IC50",< 0.2 ng/mL
same,IC50,[1]; [11],733 nM
same,IC50,"[1]; Human immunodeficiency virus 1, TZM-bl, BJOX028000.10.3.SG3 (Clade AE), read-out: IC50",418 ng/mL
same,IC50,[1]; [12],533 nM
same,IC50,"[1]; Human immunodeficiency virus 1, TZM-bl, BL01.DG.SG3 (Clade B), read-out: IC50",304 ng/mL
same,IC50,[1]; [13],89 nM
same,IC50,"[1]; Human immunodeficiency virus 1, TZM-bl, C4118.09.SG3 (Clade AE), read-out: IC50",50.7 ng/mL
same,IC50,[1]; [14],22 nM
same,IC50,"[1]; Human immunodeficiency virus 1, TZM-bl, CAP210.E8.SG3 (Clade C), read-out: IC50",12.5 ng/mL
same,IC50,[1]; [15],< 0.3 nM
same,IC50,"[1]; Human immunodeficiency virus 1, TZM-bl, CH119.10.SG3 (Clade BC), read-out: IC50",< 0.2 ng/mL
same,IC50,[1]; [16],< 0.3 nM
same,IC50,"[1]; Human immunodeficiency virus 1, TZM-bl, CNE10.SG3 (Clade B), read-out: IC50",< 0.2 ng/mL
same,IC50,[1]; [17],6 nM
same,IC50,"[1]; Human immunodeficiency virus 1, TZM-bl, CNE20.SG3 (Clade BC), read-out: IC50",3.4 ng/mL
same,IC50,[1]; [18],471 nM
same,IC50,"[1]; Human immunodeficiency virus 1, TZM-bl, CNE56.SG3 (Clade AE), read-out: IC50",268 ng/mL
same,IC50,[1]; [19],< 0.3 nM
same,IC50,"[1]; Human immunodeficiency virus 1, TZM-bl, DJ263.8.SG3 (Clade AG), read-out: IC50",< 0.2 ng/mL
same,IC50,[1]; [20],< 0.3 nM
same,IC50,"[1]; Human immunodeficiency virus 1, TZM-bl, DU156.12.SG3 (Clade C), read-out: IC50",< 0.2 ng/mL
same,IC50,[1]; [21],~2 nM
same,IC50,[1]; [22],11 nM
same,IC50,"[1]; Human immunodeficiency virus 1, TZM-bl, KER2008.12.SG3 (Clade A), read-out: IC50",6.3 ng/mL
same,IC50,[1]; [23],14 nM
same,IC50,"[1]; Human immunodeficiency virus 1, TZM-bl, MB201.A1.SG3 (Clade A), read-out: IC50",8 ng/mL
same,IC50,[1]; [24],< 0.3 nM
same,IC50,"[1]; Human immunodeficiency virus 1, TZM-bl, NKU3006.ec1.SG3 (Clade D), read-out: IC50",< 0.2 ng/mL
same,IC50,[1]; [25],< 0.3 nM
same,IC50,"[1]; Human immunodeficiency virus 1, TZM-bl, P0402.c2.11.SG3 (Clade G), read-out: IC50",< 0.2 ng/mL
same,IC50,[1]; [26],< 0.3 nM
same,IC50,"[1]; Human immunodeficiency virus 1, TZM-bl, PVO.04.SG3 (Clade B), read-out: IC50",< 0.2 ng/mL
same,IC50,[1]; [27],32 nM
same,IC50,"[1]; Human immunodeficiency virus 1, TZM-bl, R3265.c6.SG3 (Clade AE), read-out: IC50",18.2 ng/mL
same,IC50,[1]; [28],450 nM
same,IC50,"[1]; Human immunodeficiency virus 1, TZM-bl, REJO.67.SG3 (Clade B), read-out: IC50",256 ng/mL
same,IC50,[1]; [29],< 0.3 nM
same,IC50,"[1]; Human immunodeficiency virus 1, TZM-bl, T253-11.SG3 (Clade AG), read-out: IC50",< 0.2 ng/mL
same,IC50,[1]; [30],< 0.3 nM
same,IC50,"[1]; Human immunodeficiency virus 1, TZM-bl, T280-5.SG3 (Clade AG), read-out: IC50",< 0.2 ng/mL
same,IC50,[1]; [31],0.5 nM
same,IC50,"[1]; Human immunodeficiency virus 1, TZM-bl, ZM106.9.SG3 (Clade C), read-out: IC50",0.3 ng/mL
same,IC50,"[1]; Human immunodeficiency virus 1, TZM-bl, geomean, 30-strain panel, read-out: Geometric mean IC50",< 0.2 ng/mL
same,IC50,"[1]; Human immunodeficiency virus 1, TZM-bl, read-out: Geometric mean IC50",< 2 nM
same,IC50,[4],> 20000 nM
same,-TΔS,[2],+4.5 kcal/mol
same,ΔG,[2],-10.4 kcal/mol
same,ΔH,[2],-14.9 kcal/mol
same,Kd,[2]; read-out: Kd (affinity),47 nM

# Reference: article PMC6318274, “Lattice engineering enables definition of molecular features allowing for potent small-molecule inhibition of HIV-1 entry” (Nature Communications, 2019)
